According to US20200276165A1, “OVOTIOLS FOR THE TREATMENT OF CHRONIC LOW-GRADE SYSTEMIC INFLAMMATION (CLGSI) AND RELATED DISEASES” (UNIVERSITA' DEGLI STUDI G. D'ANNUNZIO CHIETI - PESCARA, priority 2017, published 2020):

Columns and labels:
[1] = system: peroxynitrite in GD-HUVECs; assay: Peroxynitrite levels by flow cytometry, HKGreen-4A probe; format: cell-based, human; conditions: GD-HUVEC
Text: (§1) Cell endothelial cultures and experimental protocols: umbilical cords were obtained from randomly selected healthy Caucasian (Control, C) and with Gestational Diabetes (GD) mothers delivering at the Hospital of Chieti and Pescara. All procedures were in agreement with the ethical standards of the Institutional Committee on Human Experimentation (Reference Number: 1879/09COET) and with the Declaration of Helsinki Principles. After approval of the protocol by the Institutional Review Board, signed informed consent was obtained from each participating subject. Primary C- and GD-HUVECs were obtained and used between the 3rd and 5th passages in vitro. To evaluate the potential cytotoxicity of ovothiol, HUVECs were stimulated for 24 h with different doses (10-100 μM) of ovothiol A. The best doses of ovothiol A were used to evaluate their effects on the cells treated with TNF (1 ng/ml, Sigma Aldrich) which activated the inflammatory response. Briefly, HUVECs were grown to sub-confluence in complete culture medium DMEM/M199 (Mascia Brunelli, Italia). The cells were pre-incubated with ovothiol A (10 and 50 μM) for 24 hours or with medium alone as basal condition. Subsequently the cells were stimulated with TNF for 16 hours.
(§2) Flow cytometry: for flow cytofluorimetry analysis, C- and GD-HUVECs were stimulated as described in the experimental protocols. Non-permeabilized cells were detached by tetra-acetic ethylene-diamine acid solution (EDTA) 5 mM, washed and resuspended in bovine serum albumin (BSA) 0.5%. Cells harvested by centrifugation at 800 rpm for 15 min were incubated with anti-VCAM-1 PE-conjugate (1:100, phycoerythrin; Biolegend, San Diego, Calif., USA) and anti-ICAM-1 FITC-conjugate (1:100, fluorescein isothiocyanate; Biolegend) antibodies, both for 30 min at 4° C. The intracellular levels of peroxynitrite (ONOO—) were detected in C- and GD-HUVECs by using the HKGreen-4A probe (10 μM, 30 min at 37° C.) synthesized and provided by the laboratory of Prof. Dan Yang's. Reactive Oxygen Species (ROS) levels were evaluated with the fluorogenic reagent dichlorofluorescein diacetate (DCF-DA, Sigma-Aldrich) (20 μM, 45 min at 37° C.). All samples were analyzed using a FACS Calibur or FACS Canto II (BD Bioscences). The levels of membrane proteins (VCAM-1 and ICAM-1), fluorescence detection of ONOO— and ROS were evaluated by cytometric analysis of over 10.000 events for each sample. All data were analyzed using FACS Diva (BD Bioscences) and FlowJo v.8.8.6 software (TreeStar, Ashland, Oreg.) and expressed as percentage (%) of positive cells or MFI (Mean Fluorescence Intensity) Ratio. The MFI Ratio was calculated by dividing the MFI of positive events by the MFI of negative events (MFI of secondary antibody).

[2] = system: peroxynitrite in C-HUVECs; assay: as above; format: cell-based, human; conditions: C-HUVEC
Text: as §1, §2

cGMP levels in C-HUVECs = assay: Cyclic guanosine mono phosphate assay (cGMP), EIA; format: cell-based, human
Description: Cyclic guanosine mono phosphate assay (cGMP): intracellular cGMP levels were evaluated by using a commercially available Enzyme Immunoassay (EIA) kit (GE Healthcare, Little Chalfont, Buckinghamshire, UK).

GD-HUVECs [3] = assay: MTT assay, cell viability; format: cell-based, human; conditions: GD-HUVEC
Text: as §1
(§3) MTT assay: ovothiol effect on the viability of C- and GD-HUVECs was evaluated by the 3-(4,5 dimethylthiazolyl-2)-2,5-diphenyltetrazolium bromide (MTT, Sigma-Aldrich) assay. 1×10^5 cells were plated in 96-well plates, grown to sub-confluence with the medium alone (as control) or stimulated for 24 h with growing doses of ovothiol A (10-100 μM), in the presence or absence of TNFα stimulation (1 ng/ml). A solution of MTT in phosphate buffer saline (PBS) was added to each well to a final concentration of 5 mg/ml. After 3 h incubation at 37° C., the cellular viability was evaluated before addition of 0.2 ml dimethylsulfoxide (DMSO, Sigma-Aldrich) for crystal solubilization in the vital cells. The absorbance at 540 nm was read using a micro-plate reader (SpectraMAX 190, Molecular Devices Inc., Sunnyvale, Calif., USA) and results were expressed as the absorbance at 540 nm (ABS 540 nm).

C-HUVECs [4] = assay: MTT assay, cell viability; format: cell-based, human; conditions: C-HUVEC
Text: as §1, §3

ICAM-1 on C-HUVEC = assay: Flow cytometry, membrane exposure of ICAM-1; format: cell-based, human; conditions: 50 μM ovothiol A, TNFα
Text: (§4) Cell endothelial cultures and experimental protocols: umbilical cords were obtained from randomly selected healthy Caucasian (Control, C) and with Gestational Diabetes (GD) mothers delivering at the Hospital of Chieti and Pescara. All procedures were in agreement with the ethical standards of the Institutional Committee on Human Experimentation (Reference Number: 1879/09COET) and with the Declaration of Helsinki Principles. After approval of the protocol by the Institutional Review Board, signed informed consent was obtained from each participating subject. Primary C- and GD-HUVECs were obtained and used between the 3rd and 5th passages in vitro. […]
(§5) Flow cytometry: for flow cytofluorimetry analysis, C- and GD-HUVECs were stimulated as described in the experimental protocols. […] The intracellular levels of peroxynitrite (ONOO—) were detected in C- and GD-HUVECs by using the HKGreen-4A probe (10 μM, 30 min at 37° C.) synthesized and provided by the laboratory of Prof. […] Reactive Oxygen Species (ROS) levels were evaluated with the fluorogenic reagent dichlorofluorescein diacetate (DCF-DA, Sigma-Aldrich) (20 μM, 45 min at 37° C.). All samples were analyzed using a FACS Calibur or FACS Canto II (BD Bioscences). The levels of membrane proteins (VCAM-1 and ICAM-1), fluorescence detection of ONOO— and ROS were evaluated by cytometric analysis of over 10.000 events for each sample. […]

ICAM-1 on GD-HUVEC = assay: Flow cytometry, membrane exposure of ICAM-1; format: cell-based, human; conditions: 50 μM ovothiol A, TNFα
Text: as §4, §5

[5] = system: intracellular GSH in GD-HUVECs; assay: Determination of intracellular glutathione levels (GSH); format: cell-based, human; conditions: GD-HUVEC, after 10 minutes of incubation of ovothiol A
Description: Analysis of Ovothiol A levels in cell cultures: HUVEC cells (1,2×10^6 cellule) were cultured in flasks (25 cm^2) in the absence and in the presence of 50 μM ovothiol A and collected after incubation at different time intervals. The culture media were recovered by centrifugation and frozen for ovothiol A quantitation by HPLC analysis. The cellular pellets were resuspended in PBS pH 7.5, sonicated three times for 15 sec and 30% amplitude. The samples were then centrifuged at 13.000 rpm over 15 min to remove cellular debris, ultrafiltered by Microcon 3 to remove all molecules with MW>3 kDa and frozen for further analysis by HPLC. HPLC analyses were performed in duplicate on an LC10AD instrument equipped with binary pumps and a Shimadzu SPD-10AVP detector set at 254 nm and 280 nm. […]
Determination of intracellular glutathione levels (GSH): total GSH was determined by using the Glutathione Assay Kit (Sigma). […] The supernatant was used for the determination of glutathione by performing a kinetic assay in which catalytic amounts (nmoles) of GSH caused a continuous reduction of 5,5-dithiobis (2-nitrobenzoic acid) (DTNB) to 5-thio-2-nitrobenzoic (TNB), measured at 405 nm by a Thermo Scientific™ Multiskan™ FC Microplate Photometer.

ROS in GD-HUVECs = assay: ROS levels by flow cytometry (DCF-DA); format: cell-based, human; conditions: GD-HUVEC, under inflammatory conditions (TNFα)
Text: as §4, §5

ROS in C-HUVECs = assay: ROS levels by flow cytometry (DCF-DA); format: cell-based, human; conditions: C-HUVEC, in the absence of TNFα
Text: as §4, §5

VCAM-1 on C-HUVEC = assay: Flow cytometry, membrane exposure of VCAM-1; format: cell-based, human; conditions: 50 μM ovothiol A, TNFα
Text: as §4, §5

VCAM-1 on GD-HUVEC = assay: Flow cytometry, membrane exposure of VCAM-1; format: cell-based, human; conditions: 50 μM ovothiol A, TNFα
Text: as §4, §5

[6] = Ovothiol A level in medium without the cells (HPLC); format: in vitro ADME; conditions: Control: medium without the cells, ovothiol A 50 μM
Description: (§6) Analysis of Ovothiol A levels in cell cultures: HUVEC cells (1,2×10^6 cellule) were cultured in flasks (25 cm^2) in the absence and in the presence of 50 μM ovothiol A and collected after incubation at different time intervals. The culture media were recovered by centrifugation and frozen for ovothiol A quantitation by HPLC analysis. The cellular pellets were resuspended in PBS pH 7.5, sonicated three times for 15 sec and 30% amplitude. The samples were then centrifuged at 13.000 rpm over 15 min to remove cellular debris, ultrafiltered by Microcon 3 to remove all molecules with MW>3 kDa and frozen for further analysis by HPLC. HPLC analyses were performed in duplicate on an LC10AD instrument equipped with binary pumps and a Shimadzu SPD-10AVP detector set at 254 nm and 280 nm. A Phenomenex Synergi Sphereclone octadecylsilane (25 cm×0.46 cm, 4 μm particle size) column was used with 1% formic acid taken to pH 4.5 with ammonia, as the eluant, at a 0.7 mL/min flow rate.

GD-HUVECs [7] = assay: Analysis of ovothiol A levels in cell cultures (HPLC); format: in vitro ADME, human
Description: as §6

C-HUVECs [8] = assay: as above; format: in vitro ADME, human
Description: as §6

[9] = system: U937 monocytes adhesion to C-HUVECs; assay: Adhesion of monocytes to endothelium assay; format: cell-based, human; conditions: C-HUVEC, 24 hours pre-treatment with 10 and 50 μM, TNFα 1 ng/ml 16 hours
Text: as §4
(§7) Adhesion of monocytes to endothelium assay: adhesion of U937 monocytes to C- and GD-HUVECs was evaluated in the basal state, after 16 hours of TNFα treatment (1 ng/ml) and in presence of ovothiol A (10-50 μM). The cells were grown to confluence in six-well culture plates and U937 adhesion was evaluated as previously described (Di Tomo, P., Lanuti, P., Di Pietro, N., Baldassarre, M. P. A., Marchisio, M., Pandolfi, A., Consoli, A., Formoso, G. (2017) Liraglutide mitigates TNF-α induced pro-atherogenic changes and Microvesicles release in HUVEC from diabetic women. Diabetes Metab. Res. Rev. doi: 10.1002/dmrr.2925).

[10] = system: U937 monocytes adhesion to GD-HUVECs; assay: Adhesion of monocytes to endothelium assay; format: cell-based, human; conditions: GD-HUVEC, 24 hours pre-treatment with 10 and 50 μM, TNFα 1 ng/ml 16 hours
Text: as §4, §7

Hep-G2 cell line = conditions: epatocarcinoma cell lines; cited from earlier work
[11] = Ionomycin 50 nM in combination with PMA 0.3 μM, positive control
[12] = 50 μM, in the presence or absence of TNFα
[13] = GD-HUVECs incubated 30 minutes with ovothiol A 50 μM, HPLC
[14] = C-HUVECs incubated 30 minutes with ovothiol A 50 μM, HPLC
[15] = pre-treatment with 50 μM, after exposure to TNFα

C[C@H](CCC(=O)O)C[C@H](C)C[C@H](C)C(=O)/C=C(\O)[C@H](C)C[C@H](C)C/C=C/[C@@H](C)[C@@H](O)[C@@H](C)[C@@H](O)C[C@@H]1CC[C@@](C)([C@H]2CC[C@@](C)([C@@H](C)O)O2)O1 [Ionomycin, reference compound]
peroxynitrite formation [1, 11]: induced peroxynitrite formation | peroxynitrite formation [2, 11]: induced peroxynitrite formation | cGMP levels (cGMP levels in C-HUVECs; C-HUVEC, positive control): induced the increase of cGMP levels

COC(=O)[C@@H](N)CCCNC(=N)N[N+](=O)[O-] [L-NAME, reference compound]
cGMP levels, addition of L-NAME to Ionomycin (cGMP levels in C-HUVECs; C-HUVEC, Ionomycin-stimulated): restored the initial levels

ovothiol A
cell viability parameters (MTT) (GD-HUVECs [3]; [12]): no significant changes | cytotoxicity (viability by MTT assay) (GD-HUVECs [3]; 100 μM ovothiol A, 24 h): cytotoxic | cell viability parameters (MTT) (C-HUVECs [4]; [12]): no significant changes | cytotoxicity (viability by MTT assay) (C-HUVECs [4]; 100 μM ovothiol A, 24 h): cytotoxic | effect on ICAM-1 levels (membrane exposure) (ICAM-1 on C-HUVEC): did not reach the statistical significance | effect on ICAM-1 levels (membrane exposure) (ICAM-1 on GD-HUVEC): did not reach the statistical significance | intracellular GSH levels [5]: increased significantly | ROS levels (ROS in GD-HUVECs): reduced ROS levels | ROS levels (ROS in C-HUVECs): reduced ROS levels | exposure of VCAM-1 on the membrane (VCAM-1 on C-HUVEC): significantly reduced | exposure of VCAM-1 on the membrane (VCAM-1 on GD-HUVEC): significantly reduced | ovothiol A in medium [6]: 45 µmol/L | kinetic decay of the compound in the medium (GD-HUVECs [7]; GD-HUVEC medium, 50 μM, compared to the medium without the cells): very rapid | ovothiol A in cells (GD-HUVECs [7]; [13]): 1.53 pmol/cell | ovothiol A in medium (GD-HUVECs [7]; [13]): 10.08 ± 1.68 µmol/L | kinetic decay of the compound in the medium (C-HUVECs [8]; C-HUVEC medium, 50 μM, compared to the medium without the cells): very rapid | ovothiol A in cells (C-HUVECs [8]; [14]): 1.18 pmol/cell | ovothiol A in medium (C-HUVECs [8]; [14]): 14.86 ± 1.24 µmol/L | U937 cell adhesion (number of adherent cells) [9]: only on GD-HUVECs | U937 cell adhesion (number of adherent cells) [10]: significant reduction | levels of peroxynitrite [1, 15]: significantly reduced | levels of peroxynitrite [2, 15]: significantly reduced | cGMP levels, effect of ovothiol A with TNFα treatment (cGMP levels in C-HUVECs; C-HUVEC, TNFα+Ovot): abolished | cGMP levels (cGMP levels in C-HUVECs; C-HUVEC, ovothiol A treatment): significantly increased | cGMP levels, effect of ovothiol A with L-NAME pre-incubation (cGMP levels in C-HUVECs; pre-incubation with L-NAME 1 mM for 45 minutes): not affected | autophagy (Hep-G2 cell line): induces autophagy | reduction of reactive oxygen species (Hep-G2 cell line): without inducing a reduction of reactive oxygen species
